The results in this text go back to patent US7230017B2, “Dihydropyridinone derivatives” (Bayer Healthcare AG, priority 2002, dated 2007).

One experiment addresses T1, human neutrophil elastase (HNE) (Homo sapiens, UniProt P08246).
T1 construct: purchased SERVA Electrophoresis GmbH, Heidelberg, Germany #20927.01
T1 sequence (P08246 30-267): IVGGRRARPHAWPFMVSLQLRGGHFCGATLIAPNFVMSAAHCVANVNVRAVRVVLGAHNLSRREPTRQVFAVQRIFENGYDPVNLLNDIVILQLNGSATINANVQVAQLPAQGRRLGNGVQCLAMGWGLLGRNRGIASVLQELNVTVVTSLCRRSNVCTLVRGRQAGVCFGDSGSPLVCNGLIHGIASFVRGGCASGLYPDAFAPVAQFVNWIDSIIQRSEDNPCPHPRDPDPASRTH
Nature of the experiment: In vitro inhibition of HNE using a fluorogenic peptide substrate (continuous read-out signal, 384 MTP assay format). In kind it is biochemical. As to conditions: substrate MeOSuc-Ala-Ala-Pro-Val-AMC, 37° C. How it is done:
I. In Vitro Enzyme Assays of Human Neutrophil Elastase (HNE)
assay buffer: 0.1 M HEPES-NaOH buffer pH 7.4, 0.5 M NaCl, 0.1% (w/v) bovine serum albumin;
suitable concentration (see below) of substrate in assay buffer;
suitable concentration of test compounds diluted with assay buffer from a 10 mM stock solution in DMSO.
The test solution is prepared by mixing 10 μl of test compound dilution, 20 μl of HNE enzyme dilution (final concentration 8–0.4 μU/ml, routinely 2.1 μU/ml) and 20 μl of substrate dilution (final concentration 1 mM–1 μM, routinely 20 μM), respectively. The solution is incubated for 0–2 hrs at 37° C. (routinely one hour). The fluorescence of the liberated AMC due to the enzymatic reaction is measured at 37° C. (TECAN spectra fluor plus plate reader). […] IC50 values are determined by RFU-versus-[I] plots. Km and Km(app.) values are determined by Lineweaver-Burk plots and converted to Ki values by Dixon plots.
Usually IC50 stands for the midpoint of a concentration-inhibition curve. For `COCCNC(=O)C1C(=O)N(c2cccc(C(F)(F)F)c2)C(C)=C(C#N)C1c1ccc(C#N)cc1` (stereo not shown) [Example 20, 5-Cyano-4-(4-cyanophenyl)-N-(2-methoxyethyl)-6-methyl-2-oxo-1-[3-(trifluoromethyl)phenyl]-1,2,3,4-tetrahydro-3-pyridinecarboxamide], the IC50 came out at 30 nM.

For `CC1=C(C#N)C(c2ccc(C#N)cc2)C(C(=O)NCCC(=O)O)C(=O)N1c1cccc(C(F)(F)F)c1` (stereo not drawn) [Example 19, N-({5-Cyano-4-(4-cyanophenyl)-6-methyl-2-oxo-1-[3-(trifluoromethyl)phenyl]-1,2,3,4-tetrahydro-3-pyridinyl}carbonyl)-β-alanine], the IC50 amounted to 25 nM. Regarding `CC(=O)C1=C(C)N(c2cccc(C(F)(F)F)c2)C(=O)C(C(=O)N(C)C)C1c1ccc(C#N)cc1` (stereo not shown) [Example 13, 5-Acetyl4-(4-cyanophenyl)-N,N,6-trimethyl-2-oxo-1-[3-(trifluoromethyl)phenyl]-1,2,3,4-tetrahydro-3-pyridinecarboxamide], the half-inhibitory concentration (IC50) turned out to be 25 nM.

In the case of `CCNC(=O)C1=C(C)N(c2cccc(C(F)(F)F)c2)C(=O)CC1c1ccc(C#N)cc1` (stereo not shown) [Example 77], the IC50 amounted to 350 nM. The same measure, in the same setting: with `CC1=C(C#N)C(c2ccc(C#N)cc2)C(C(N)=O)C(=O)N1c1cccc(C(F)(F)F)c1` (single isomer, unassigned; (-)) [Example 98, (−)-5-Cyano-4-(4-cyanophenyl)-6-methyl-2-oxo-1-[3-(trifluoromethyl)phenyl]-1,2,3,4-tetrahydro-3-pyridinecarboxamide] the figure was 8 nM; with `CC1=C(C#N)C(c2ccc(C#N)cc2)C(C(N)=O)C(=O)N1c1cccc(C(F)(F)F)c1` (stereo not shown) [Example 7, 5-Cyano-4-(4-cyanophenyl)-6-methyl-2-oxo-1-[3-(trifluoromethyl)phenyl]-1,2,3,4-tetrahydro-3-pyridinecarboxamide], 13 nM.

For `CC1=C(C#N)C(c2ccc(C#N)cc2)C(C(=O)N(C)C)C(=O)N1c1cccc(C(F)(F)F)c1` (stereo not shown) [Example 12, 5-Cyano-4-(4-cyanophenyl)-N,N,6-trimethyl-2-oxo-1-[3-(trifluoromethyl)phenyl]-1,2,3,4-tetrahydro-3-pyridinecarboxamide], the IC50 was determined as 25 nM.

Take `CCOC(=O)C1=C(C)N(c2cccc(C(F)(F)F)c2)C(=O)C(C(=O)OCC)C1c1ccc(C#N)cc1` (stereo not shown) [Example 1]: the IC50 came out at 30 nM. The same measure, in the same setting: with `CCOC(=O)C1=C(C)N(c2cccc(C(F)(F)F)c2)C(=O)C(C(N)=O)C1c1ccc(C#N)cc1` (stereo not shown) [Example 3] the figure was 20 nM; with `CCOC(=O)C1=C(C)N(c2cccc(C(F)(F)F)c2)C(=O)C(C(=O)OCC)C1c1cc2cc(C#N)ccc2o1` (stereo not shown) [Example 15, Diethyl 4-(5-cyano-1-benzofuran-2-yl)-6-methyl-2-oxo-1-[3-(trifluoromethyl)phenyl]-1,2,3,4-tetrahydro-3,5-pyridinedicarboxylate], 200 nM; with `CC1=C(C#N)C(c2ccc(C#N)cc2)C(C(=O)NCCO)C(=O)N1c1cccc(C(F)(F)F)c1` (stereo not shown) [Example 68, 5-Cyano-4-(4-cyanophenyl)-6-methyl-2-oxo-1-[3-(trifluoromethyl)phenyl]-1,2,3,4-tetrahydropyridine-3-carboxylic acid (2-hydroxyethyl)amide], 15 nM.

For another experiment, the system named is human polymorphonuclear cells (PMNs). The experiment is described as follows: In vitro PMN elastolysis assay (3H-elastin). In kind it is cell-based. Conditions: at 1.2 μM; n=3 different donors at 3.6×10^5 cells per well; 4 hours at 37° C. How it is done:
In Vitro PMN Elastolysis Assay
This assay is used to determine the elastolytic potential of human polymorphonuclear cells (PMNs) and assess the proportion of degradation due to neutrophil elastase [cf. Z. W. She et al., Am. J. Respir. Cell. Mol. Biol. 9, 386–392 (1993)].
Tritiated elastin, in suspension, is coated on to a 96 well plate at 10 μg per well. Test and reference [ZD-0892 (J. Med. Chem. 40, 1876–1885, 3173–3181 (1997), WO 95/21855) and al protease inhibitor (α1PI)] compounds are added to the wells at the appropriate concentrations. Human PMNs are separated from peripheral venous blood of healthy donors and resuspended in culture media. The neutrophils are added to the coated wells at concentrations ranging between 1×10^6 to 1×10^5 cells per well. Porcine pancreatic elastase (1.3 μM) is used as a positive control for the assay, and α1PI (1.2 μM) is used as the positive inhibitor of neutrophil elastase. The cellular control is PMNs without compound at each appropriate cell density. The cells plus compounds are incubated in a humidified incubator at 37° C. for 4 hours. The plates are centrifuged to allow the harvest of cell supernatant only. […] The plates are dried until no liquid is visible in the wells and read in a beta counter for 3 minutes per well. […]
The compounds of this invention are evaluated for their inhibitory activity in this HNE-dependent model of neutrophil elastolysis.
As for “α1PI: al protease inhibitor (α1PI), used as the positive inhibitor of neutrophil elastase”, the “inhibition of elastolysis (mean±s.e.m.)” value worked out at 83.46±3.97%.

Staying with this experiment, now noted: n=2 different donors at 3.6×10^5 cells per well; 4 hours at 37° C.; read-out: IC50 (mean±s.e.m.).
On to `COc1ccc(C(=O)N[C@H](C(=O)N2CCC[C@H]2C(=O)N[C@H](C(=O)C(F)(F)F)C(C)C)C(C)C)cc1` [ZD-0892], for which the concentration for half-maximal inhibition (IC50) was 45.5 ± 7.75 nM.
